As usually defined, the pIC50 is −log10 of the IC50, conventionally taken in molar units.

This is an account of results in BindingDB's records for doi:10.1021/acs.jmedchem.6b00594 (Duquesne University, 2016).

pIC50: −log10 of the molar value.

Experiment [1] can be described thus: Inhibition of human RFC expressed in Chinese hamster PC43-10 cells assessed as antiproliferative activity measured as reduction in cell viability after 96 hrs by Cell-Titer Blue fluorescence analysis.
Experiment [2] can be described thus: Inhibition of human PCFT expressed in Chinese hamster R2/PCFT4 cells assessed as antiproliferative activity measured as reduction in cell viability after 96 hrs by Cell-Titer Blue fluorescence analysis.
Experiment [3] in a line: Inhibition of human FR-beta receptor expressed in Chinese hamster D4 cells assessed as antiproliferative activity measured as reduction in cell viability after 96 hrs by Cell-Titer Blue fluorescence analysis.
A short description of experiment [4]: Inhibition of human FR-alpha receptor expressed in Chinese hamster RT16 cells assessed as antiproliferative activity measured as reduction in cell viability after 96 hrs by Cell-Titer Blue fluorescence analysis.

For `Nc1nc2[nH]c(CCN(C(=O)C(F)(F)F)c3ccc(C(=O)N[C@@H](CCC(=O)O)C(=O)O)cc3)cc2c(=O)[nH]1`, the pIC50 in experiment [1] is 6.11; in experiment [2], 6.96; in experiment [3], 9.35; in experiment [4], 8.96.

In the case of `Nc1nc2[nH]c(CCOc3ccc(C(=O)N[C@@H](CCC(=O)O)C(=O)O)cc3)cc2c(=O)[nH]1`, the pIC50 in experiment [1] was 6.19; in experiment [2], 7.24; in experiment [3], 8.59; in experiment [4], 8.72.

As for `Nc1nc2[nH]c(CCSc3ccc(C(=O)N[C@@H](CCC(=O)O)C(=O)O)cc3)cc2c(=O)[nH]1`, the pIC50 was less than 6.00 in experiment [1], 6.57 in experiment [2], 9.47 in experiment [3] and 9.29 in experiment [4].

`CC(=O)N(CCc1cc2c(=O)[nH]c(N)nc2[nH]1)c1ccc(C(=O)N[C@@H](CCC(=O)O)C(=O)O)cc1`: the pIC50 in experiment [1] was 6.09; in experiment [2] it was 7.09; in experiment [3], 8.80; in experiment [4], 8.31.

On to `Nc1nc2[nH]c(CCN(C=O)c3ccc(C(=O)N[C@@H](CCC(=O)O)C(=O)O)cc3)cc2c(=O)[nH]1`, for which the pIC50 in experiment [1] was 6.19; in experiment [2], 7.05; in experiment [3] it was 9.28; in experiment [4] it was 8.52.

As to `Nc1nc2[nH]c(CCNc3ccc(C(=O)N[C@@H](CCC(=O)O)C(=O)O)cc3)cc2c(=O)[nH]1`, the pIC50 in experiment [1] is 6.29; in experiment [2] it was 7.06; in experiment [3], 9.21; in experiment [4] it was 8.52.
